Source: patent publication US11065235B2, “Substituted methanopyrido [2, 1-a] isoindolones as mAChR modulators for treating various associated pathophysiological conditions and process for preparation thereof” (COUNCIL OF SCIENTIFIC & INDUSTRIAL RESEARCH, priority 2017, dated 2021)
Where two headings read alike, the source gives them in different places. Values belong to the compound of their own block, whether it stands above or below them.

Assays:
human M2R = molecular target: T1, human M2R (Homo sapiens, UniProt P08172); test: GloSensor cAMP assay (Gi-mediated cAMP inhibition); assay type: cell-based; conditions: M2, agonist, N.A. = not active; for IC50: read-out: pIC50/pEC50 (Mean ± SEM) M2 (converted)
T1 construct: expressed in transfected cells; host or cells: HEK-293T
T1 sequence (P08172 1-466): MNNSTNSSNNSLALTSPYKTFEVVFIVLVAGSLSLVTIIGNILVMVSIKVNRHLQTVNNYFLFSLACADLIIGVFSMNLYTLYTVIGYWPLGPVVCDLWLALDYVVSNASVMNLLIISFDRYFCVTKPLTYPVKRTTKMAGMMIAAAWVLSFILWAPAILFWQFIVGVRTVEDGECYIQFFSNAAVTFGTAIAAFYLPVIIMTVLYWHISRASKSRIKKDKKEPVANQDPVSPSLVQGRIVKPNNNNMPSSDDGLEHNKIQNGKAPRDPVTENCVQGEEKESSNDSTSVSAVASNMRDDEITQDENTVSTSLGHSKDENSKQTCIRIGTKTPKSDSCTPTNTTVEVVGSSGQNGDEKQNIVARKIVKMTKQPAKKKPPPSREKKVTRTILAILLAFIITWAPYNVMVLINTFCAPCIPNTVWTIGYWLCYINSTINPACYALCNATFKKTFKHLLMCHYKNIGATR
Protocol: To measure M2 muscarinic receptor induced (Gi-mediated) cAMP inhibition, HEK-293T cells (procured from NCCS, Pune) were co-transfected with human M2R and luciferase based cAMP biosensor (pGloSensor™-22F plasmid; Promega) using PEImax method of transfection in the ratio of 1:1. The transfected cells were incubated at 37° C. in tissue culture incubator with 5% CO2 for 14-16 hours. For GloSensor cAMP assay, after overnight incubation, media from the plate was aspirated and 100 μl of sodium luciferin solution in drug buffer (1×HBSS (pH7.4) and 20 mM HEPES) was added to the cell plates. The plates were then incubated at 37° C. in tissue culture incubator with 5% CO2 for 90 minutes. After incubation, cells were treated with 20 μl of 6× diluted standard carbamoyl choline (10000 nM to 0.01 nM) along with test compounds (in triplicates) and were incubated in a humidified tissue culture incubator at 37° C. with 5% CO2 for 10-15 minutes to get a steady state condition. Ligand incubation was followed by addition of 20 μl of 7×(70 μM) forskoline (FSK) to the plate. FSK incubation was followed by incubation at 37° C. for 10-15 minutes and measurement of luminescence per well using luminescence plate reader (BMG Labtech). The results were plotted as inhibition of FSK stimulated cAMP response (relative luminescence units) using nonlinear regression analysis by Graph-Pad prism V.

human M3R = molecular target: T2, human M3R (Homo sapiens, UniProt P20309); test: NFAT-luciferase assay, M3; assay type: cell-based; design: IC50 activity, M3 muscarinic receptor antagonist: unit not given beside the values; conditions: for selectivity among muscarinic receptors (in words): M1, M3 and M5 antagonist profiling; for effectiveness relative to known drug darifenacin at M3: compared with darifenacin 8.9 pKi
T2 construct: expressed in transfected cells; host or cells: HEK-293T
T2 sequence (P20309 whole entry): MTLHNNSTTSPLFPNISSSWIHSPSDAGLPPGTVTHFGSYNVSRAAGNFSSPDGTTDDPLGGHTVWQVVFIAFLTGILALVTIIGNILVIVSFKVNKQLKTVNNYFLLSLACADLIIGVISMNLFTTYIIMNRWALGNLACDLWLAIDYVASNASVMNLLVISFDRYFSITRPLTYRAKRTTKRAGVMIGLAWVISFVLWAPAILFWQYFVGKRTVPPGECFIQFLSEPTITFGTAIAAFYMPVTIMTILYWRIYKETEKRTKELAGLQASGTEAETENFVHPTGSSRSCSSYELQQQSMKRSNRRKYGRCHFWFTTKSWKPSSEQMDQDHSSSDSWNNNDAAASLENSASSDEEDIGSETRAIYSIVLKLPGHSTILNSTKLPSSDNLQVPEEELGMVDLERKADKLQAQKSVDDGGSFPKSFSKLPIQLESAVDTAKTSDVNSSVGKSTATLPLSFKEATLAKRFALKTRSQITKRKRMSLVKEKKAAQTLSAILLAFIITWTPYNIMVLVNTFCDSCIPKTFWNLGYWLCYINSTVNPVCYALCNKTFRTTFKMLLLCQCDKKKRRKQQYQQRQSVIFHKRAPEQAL
Protocol: (§1) To measure the agonist or antagonist activity at M1, M3 and M5 muscarinic receptor, NFAT-luciferase activity was performed in HEK-293T cells (procured from NCCS, Pune) by co-transfecting with human M1R or M3R or M5R and pGL4.30 (luc2P/NFAT-RE/Hygro; Promega Corp,) in 96 well format. The transfected cells were incubated at 37° C. in tissue culture incubator with 5% CO2 for 14-16 hours. To determine the if the test compounds are agonist, the transfected cells were treated with either 20 μl/well of carbamoyl choline (as a positive control) at various concentrations (10000 nM to 0.01 nM) or with various concentrations of test compounds (in triplicates) and were further incubated for 12 hrs in a humidified tissue culture incubator at 37° C. with 5% CO2. For antagonist mode assay, test compound incubation was followed by addition of 20 μl of 7 μM carbamoylcholine (agonist) to the plate. Following 12-14 hrs of drug treatment, media from the plate was aspirated and 100 μl of sodium luciferin solution (10 mg/ml) was added and luminescence per well was recorded using luminescence plate reader (BMG Labtech).

human M1R = molecular target: T3, human M1R (Homo sapiens, UniProt P11229); test: NFAT-luciferase assay, M1; assay type: cell-based; conditions: antagonist
T3 construct: expressed in transfected cells; host or cells: HEK-293T
T3 sequence (P11229 1-460): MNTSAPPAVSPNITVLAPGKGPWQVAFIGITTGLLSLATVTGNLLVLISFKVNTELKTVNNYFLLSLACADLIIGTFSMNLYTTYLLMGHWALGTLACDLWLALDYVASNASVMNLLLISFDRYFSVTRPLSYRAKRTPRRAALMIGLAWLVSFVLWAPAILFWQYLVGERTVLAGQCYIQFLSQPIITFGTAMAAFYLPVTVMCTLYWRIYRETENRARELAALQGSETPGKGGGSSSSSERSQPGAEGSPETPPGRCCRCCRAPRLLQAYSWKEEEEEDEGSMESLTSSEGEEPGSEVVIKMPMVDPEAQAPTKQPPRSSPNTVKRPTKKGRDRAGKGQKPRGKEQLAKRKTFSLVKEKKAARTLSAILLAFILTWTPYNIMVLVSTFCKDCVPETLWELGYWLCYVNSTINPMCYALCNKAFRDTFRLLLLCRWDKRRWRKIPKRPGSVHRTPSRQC
Protocol: as §1

[1] = tested on: Scopolamine induced memory deficit; test: Novel object recognition (NOR) test, scopolamine induced memory deficit; assay type: in vivo, mice; conditions: scopolamine alone 0.5 mg/kg i.p., vs vehicle, p<0.05
Description: (§2) All animal experiments and procedures were executed in accordance with the guidelines established in the guide for the care and use of laboratory animals and were approved by the institutional animal ethics committee (IAEC) of CSIR-Central Drug Research Institute, Lucknow, India. In this study, male C57BL/6J mice (6-8 weeks old) weighing 22-25 g were used. They were housed on a 12-h light/dark cycle (lights on at 8.00 am) and food and water were provided ad libitum. Animals were acclimatized to the experimental room 30 minutes prior to the beginning of behavioral procedures. For experimental purpose, animals were randomly divided into four groups: vehicle, RG-02, scopolamine and scopolamine along with RG-02. In scopolamine along with RG-02 group, RG-02 (10 mg/kg, i.p) was injected thirty minutes prior to the scopolamine (0.5 mg/kg, i.p.) injections.
The NOR test was performed according to the protocol introduced by Ennaceur and Delacour (Ennaceur & Delacour, 1988) with slight modification.
The NOR task procedure consisted of three sessions—[…], familiarization and test session. During habituation session, the mouse was placed in an open field (Square box of 40×40×40 cm), facing the wall of the arena, and allowed to explore the entire arena for 10 minutes. Following habituation period of 10 minutes, the mouse was returned to its home cage.
Between every […] session, the whole arena was cleaned with 10% ethanol to reduce olfactory cues. […] During this session, the test animal was placed in the arena and was allowed to explore the entire arena with familiar and novel object, and its activity was also video recorded. To determine the retention of object memory, the recorded videos of test session were analyzed by independent observer who was unknown to treatment of mice to calculate the time spent in exploring both objects. Data are presented as % time of exploration of familiar or novel object, and discrimination index was calculated as per following equation: (Tn−Tf)/Tt: Discrimination Index […]

[2] = tested on: Scopolamine induced memory deficit; test: Morris water maze (MWM) test, scopolamine induced learning deficit; assay type: in vivo, mice; conditions: scopolamine alone 0.5 mg/kg i.p.
Description: as §2
The Morris water maze (MWM) test was performed according to Morris 1984, with slight modifications. Circular pool of dimensions-100 cm diameter and 45 cm depth, which was filled up to 25 cm from bottom with white colour water. Temperature of water was adjusted to 24-25° C. Pool was divided into four quadrants and a square platform of 10×10 cm in was placed into the tank at a fixed location in the centre of one of the four imaginary quadrants. Training sessions were conducted for 3 consecutive days and on 4th day a probe trial was performed. During training session, mouse was gently placed into the water facing the edge of the pool of one of the quadrant. If the mouse was able to find the platform before the 60 sec cut-off, it was allowed to stay over the platform for 5 more seconds followed by returning to its home cage. […] Total three trials/day were run for each mouse with minimum interval of 10-15 minutes between two trials, and latency to reach the platform was calculated. On the fourth day, for the probe trial, the platform was removed and the time spent in respective quadrant was calculated.

[3] = M3, antagonist, N.A. = not active, read-out: pIC50/pEC50 (Mean ± SEM) M3 (converted)

SMILES: O=C1CCC[C@@H]2[C@@H]1C[C@@]1(S(=O)(=O)c3ccccc3)C(=O)[C@@H]3c4ccccc4[C@H]1N32 [(−)-RG-02, (−)-(4aS,6S,6aR,11S,12aR)-6-(phenylsulfonyl)-1,2,3,4a,5,6,6a,12a-octahydro-6,11-methanoisoindolo[2,1-a]quinoline-4,13(11H)-dione]
pIC50/pEC50 (Mean ± SEM) M2 (human M2R): 8.38 ± 0.35 (agonist)

SMILES: COC(=O)[C@@H]1c2ccccc2[C@@H]2[C@H](S(=O)(=O)c3ccccc3)C[C@@H]3C(=O)CCC[C@H]3N12 [RG-04, (4aS,6R,6aR,11S,12aR)-methyl 4-oxo-6-(phenylsulfonyl)-1,2,3,4,4a,5,6,6a,11,12a-decahydroisoindolo[2,1-a]quinoline-11-carboxylate]
IC50 (human M2R): 566 nM

SMILES: CCOC(=O)[C@@H]1c2ccccc2[C@@H]2[C@H](S(=O)(=O)c3ccccc3)C[C@@H]3C(=O)CCC[C@H]3N12 [RG-05, (4aS,6R,6aR,11S,12aR)-ethyl 4-oxo-6-(phenylsulfonyl)-1,2,3,4,4a,5,6,6a,11,12a-decahydroisoindolo[2,1-a]quinoline-11-carboxylate]
IC50 (human M2R): 2160 nM

SMILES: Cc1ccc(S(=O)(=O)[C@]23C[C@@H]4C(=O)CCC[C@H]4N4[C@H](C2=O)c2ccccc2[C@@H]43)cc1 [RG-06, (4aS,6S,6aR,11S,12aR)-6-tosyl-1,2,3,4a,5,6,6a,12a-octahydro-6,11-methanoisoindolo[2,1-a]quinoline-4,13(11H)-dione]
antagonist activity at M3 receptor (in words) (human M3R): high affinity antagonist of M3 receptor
selectivity among muscarinic receptors (in words) (human M3R): selective M3 muscarinic receptor antagonist
IC50 (human M3R; [3]): 0.129 nM
IC50 activity, M3 muscarinic receptor antagonist (human M3R; as worded in closing text): 9.89
effectiveness relative to known drug darifenacin at M3 (human M3R): tenfold more effective

SMILES: Cc1ccc(S(=O)(=O)[C@]23C[C@H]4C(=O)CC[C@H]4N4[C@H](C2=O)c2ccccc2[C@@H]43)cc1 [RG-09, (3aR,5S,5aR,10S,11aR)-5-tosyl-3a,4,5,5a,10,11a-hexahydro-1H-5,10-methanocyclopenta[5,6]pyrido[2,1-a]isoindole-3,12(2H)-dione]
antagonist activity at M3 receptor (in words) (human M3R): high affinity antagonist of M3 receptor
selectivity among muscarinic receptors (in words) (human M3R): selective M3 muscarinic receptor antagonist
IC50 (human M3R; as worded in closing text, read-out: IC50 activity, M3 muscarinic receptor antagonist (converted)): 0.102 nM
effectiveness relative to known drug darifenacin at M3 (human M3R): tenfold more effective

IC50 (human M1R; M1, N.A. = not active, read-out: pIC50/pEC50 (Mean ± SEM) M1 (converted)): 871 nM
IC50 (human M1R; read-out: IC50 at M1 receptor): ≤ 1000 nM
antagonist activity at M3 receptor (in words) (human M3R): high affinity antagonist of M3 receptor
IC50 (human M3R; [3]): 0.107 nM
SMILES: Cc1ccc(S(=O)(=O)[C@]23CC4=C(OS(=O)(=O)C(F)(F)F)CCC[C@H]4N4[C@H](C2=O)c2ccccc2[C@@H]43)cc1 [RG-13, (6S,6aR,11S,12aR)-13-oxo-6-tosyl-1,2,3,5,6,6a,11,12a-octahydro-6,11-methanoisoindolo[2,1-a]quinolin-4-yl trifluoromethanesulfonate]
selectivity among muscarinic receptors (in words) (human M3R): nonselective muscarinic receptor antagonist

SMILES: CN1[C@@H]2C[C@@H](OC(=O)[C@H](CO)c3ccccc3)C[C@H]1[C@@H]1O[C@@H]12 [scopolamine, reference compound]
exploration time for the novel object [1]: marked reduction in the exploration time for the novel object
latency to reach the platform ([2]; Day-3): increased latency to reach the platform
time in quadrant with platform (probe trial) ([2]; vs vehicle or RG-02): spent lesser time in quadrant with platform
